From PubChem BioAssay (NCI)
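Each compound was tested at five concentrations against cells in 96-well plates for 48 hours. TGI: total growth inhibition.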

Assays:
Assay in all cases: DTP human tumour cell line panel, 48 h
[1] = tested on: 786-0 renal
[2] = tested on: A549 NSCLC
[3] = tested on: ACHN renal
[4] = tested on: CAKI-1 renal
[5] = tested on: CCRF-CEM leukemia
[6] = tested on: COLO 205 colon
[7] = tested on: DU-145 prostate
[8] = tested on: EKVX NSCLC
[9] = tested on: HCC-2998 colon
[10] = tested on: HCT-116 colon
[11] = tested on: HCT-15 colon
[12] = tested on: HL-60(TB) leukemia
[13] = tested on: HOP-62 NSCLC
[14] = tested on: HOP-92 NSCLC
[15] = tested on: HS 578T breast
[16] = tested on: HT29 colon
[17] = tested on: IGROV1 ovarian
[18] = tested on: K-562 leukemia
[19] = tested on: KM12 colon
[20] = tested on: LOX IMVI melanoma
[21] = tested on: M14 melanoma
[22] = tested on: MALME-3M melanoma
[23] = tested on: MCF7 breast
[24] = tested on: MDA-MB-231 breast
[25] = tested on: MDA-MB-435
[26] = tested on: MDA-N
[27] = tested on: MOLT-4 leukemia
[28] = tested on: NCI-H226 lung
[29] = tested on: NCI-H23 lung
[30] = tested on: NCI-H460 lung
[31] = tested on: NCI-H522 lung
[32] = tested on: NCI/ADR-RES ovarian
[33] = tested on: OVCAR-3 ovarian
[34] = tested on: OVCAR-4 ovarian
[35] = tested on: OVCAR-5 ovarian
[36] = tested on: OVCAR-8 ovarian
[37] = tested on: PC-3 prostate
[38] = tested on: RPMI-8226 leukemia
[39] = tested on: RXF 393 renal
[40] = tested on: SF-268 CNS
[41] = tested on: SF-295 CNS
[42] = tested on: SF-539 CNS
[43] = tested on: SK-MEL-28 melanoma
[44] = tested on: SK-MEL-5 melanoma
[45] = tested on: SK-OV-3 ovarian
[46] = tested on: SN12C renal
[47] = tested on: SNB-19 CNS
[48] = tested on: SNB-75 CNS
[49] = tested on: SR leukemia
[50] = tested on: SW-620 colon
[51] = tested on: T-47D breast
[52] = tested on: U251 CNS
[53] = tested on: UACC-257 melanoma
[54] = tested on: UACC-62 melanoma
[55] = tested on: UO-31 renal
[56] = tested on: TK-10 renal

Measured: TGI

CCOC(=O)C(NC(=O)CC)(Nc1ccc(S(=O)(=O)Nc2ncccn2)cc1)C(F)(F)F (configuration not stated)
not listed: [56]
> 100 µM: all other assays above

Cc1coc2c1[C@@H](O)[C@@]1(C)[C@H](CCC[C@@H]1C)C2
76.3 µM: [28]
75.7 µM: [46]
89.4 µM: [27]
55 µM: [39]
77.5 µM: [44]
64.8 µM: [33]
84.3 µM: [53]
64.1 µM: [26]
47.8 µM: [36]
43.9 µM: [21]
59.3 µM: [24]
60.1 µM: [6]
93.2 µM: [13]
90.6 µM: [38]
62 µM: [12]
99 µM: [22]
73.5 µM: [31]
38.1 µM: [25]
54.5 µM: [32]
47 µM: [42]
74.7 µM: [18]
not listed: [2] | [48] | [52] | [55]
> 100 µM: all other assays above
